Results on eight compounds are retold here after ChEMBL document CHEMBL5579805, “Synthesis, antibacterial activity, and 3D-QASR studies of matrine-indole derivatives as potential antibiotics” (2024).

In brackets after ≈: the same amount, converted by molar mass.

Holding throughout (format): functional
One assay relates to Escherichia coli. The assay is described as follows: Antibacterial activity against Escherichia coli by two-fold dilution method.
The subject of another assay is Cutibacterium acnes. The assay is described as follows: Antibacterial activity against Propionibacterium acnes by two-fold dilution method.
Another assay has as its system Pseudomonas aeruginosa. Put plainly: Antibacterial activity against Pseudomonas aeruginosa by two-fold dilution method.
A further assay deals with Candida albicans. The assay is described as follows: […] activity against Candida albicans by two-fold dilution method. Conditions: for MIC: Candida albicans.
A further assay deals with Staphylococcus aureus. The assay is described as follows: Antibacterial activity against Staphylococcus aureus by two-fold dilution method. Particulars: for MIC: Staphylococcus aureus.

The term MIC denotes the lowest concentration found to suppress growth. Read a low MIC as greater potency. For the compound `COC(=O)CCC[C@@H]1[C@H]2CCCN3CCC[C@@H](CN1C(=O)c1cc4ccc(Cl)cc4n1Cc1ccc(Cl)cc1)[C@@H]23`, the MIC in the assay on Escherichia coli came out at 0.812 µg/mL (≈ 1.39 µM); in the assay with Cutibacterium acnes, 0.246 µg/mL (≈ 0.422 µM); in the assay with Pseudomonas aeruginosa, 0.633 µg/mL (≈ 1.09 µM); against Candida albicans it was 13.5 µg/mL (≈ 23.1 µM); in the assay on Staphylococcus aureus, 0.186 µg/mL (≈ 0.319 µM). The figures for the -logMIC in the assay on Candida albicans and in the assay on Staphylococcus aureus were -1.13 and 0.73, respectively.
As for `COC(=O)CCC[C@@H]1[C@H]2CCCN3CCC[C@@H](CN1C(=O)c1cc4ccc(Cl)cc4n1Cc1cccc(C(F)(F)F)c1)[C@@H]23`, the MIC is 0.559 µg/mL (≈ 0.907 µM) with Escherichia coli; 0.058 µg/mL (≈ 0.0941 µM) with Cutibacterium acnes; 0.234 µg/mL (≈ 0.38 µM) against Pseudomonas aeruginosa; 4.52 µg/mL (≈ 7.33 µM) against Candida albicans; 0.136 µg/mL (≈ 0.221 µM) against Staphylococcus aureus. Besides, the -logMIC in the assay on Candida albicans was -0.655; with Staphylococcus aureus, 0.866.
As for `COC(=O)CCC[C@@H]1[C@H]2CCCN3CCC[C@@H](CN1C(=O)c1cc4ccc(Cl)cc4n1Cc1cc(Cl)ccc1F)[C@@H]23`, the MIC turned out to be 0.848 µg/mL (≈ 1.41 µM) in the assay with Escherichia coli; 0.084 µg/mL (≈ 0.14 µM) in the assay on Cutibacterium acnes; 0.5 µg/mL (≈ 0.833 µM) in the assay on Pseudomonas aeruginosa; 5.48 µg/mL (≈ 9.12 µM) in the assay with Candida albicans; 0.097 µg/mL (≈ 0.162 µM) in the assay with Staphylococcus aureus. Also, the values for the -logMIC with Candida albicans and in the assay on Staphylococcus aureus were -0.739 and 1.013, respectively.
With `COC(=O)CCC[C@@H]1[C@H]2CCCN3CCC[C@@H](CN1C(=O)c1cc4ccc(Cl)cc4n1Cc1cc(OC)ccc1Br)[C@@H]23`, the MIC was determined as 0.933 µg/mL (≈ 1.42 µM) against Escherichia coli; 0.175 µg/mL (≈ 0.266 µM) against Cutibacterium acnes; 0.323 µg/mL (≈ 0.492 µM) with Pseudomonas aeruginosa; 9.92 µg/mL (≈ 15.1 µM) against Candida albicans; 0.774 µg/mL (≈ 1.18 µM) in the assay with Staphylococcus aureus. The -logMIC in the assay on Candida albicans is -0.997; with Staphylococcus aureus, 0.111.
As for `COC(=O)CCC[C@@H]1[C@H]2CCCN3CCC[C@@H](CN1C(=O)c1cc4ccc(Cl)cc4n1Cc1ccccc1)[C@@H]23`, the MIC in the assay with Escherichia coli came out at 1.23 µg/mL (≈ 2.25 µM); with Cutibacterium acnes, 0.478 µg/mL (≈ 0.872 µM); with Pseudomonas aeruginosa it was 0.844 µg/mL (≈ 1.54 µM); with Candida albicans, 8.94 µg/mL (≈ 16.3 µM); in the assay with Staphylococcus aureus it was 0.521 µg/mL (≈ 0.951 µM). Besides, the values for the -logMIC in the assay on Candida albicans and in the assay on Staphylococcus aureus were -0.951 and 0.283, respectively.
For the compound `COC(=O)CCC[C@@H]1[C@H]2CCCN3CCC[C@@H](CN1C(=O)c1cc4ccc(Cl)cc4n1Cc1ccc(C)cc1)[C@@H]23`, the MIC in the assay on Escherichia coli came out at 1.09 µg/mL (≈ 1.93 µM); in the assay on Cutibacterium acnes it was 0.508 µg/mL (≈ 0.904 µM); against Pseudomonas aeruginosa, 0.773 µg/mL (≈ 1.38 µM); in the assay on Candida albicans, 8.08 µg/mL (≈ 14.4 µM); against Staphylococcus aureus, 1.66 µg/mL (≈ 2.96 µM). Further, the -logMIC is -0.907 with Candida albicans and 0.221 in the assay on Staphylococcus aureus.
With `COC(=O)CCC[C@@H]1[C@H]2CCCN3CCC[C@@H](CN1C(=O)c1cc4ccc(Cl)cc4n1Cc1ccc(F)cc1)[C@@H]23`, the MIC was 0.618 µg/mL (≈ 1.09 µM) in the assay on Escherichia coli; 0.199 µg/mL (≈ 0.352 µM) against Cutibacterium acnes; 0.806 µg/mL (≈ 1.42 µM) against Pseudomonas aeruginosa; 5.89 µg/mL (≈ 10.4 µM) with Candida albicans; 0.923 µg/mL (≈ 1.63 µM) in the assay with Staphylococcus aureus. In addition, the -logMIC was -0.77 with Candida albicans and 0.035 with Staphylococcus aureus.
On to `COC(=O)CCC[C@@H]1[C@H]2CCCN3CCC[C@@H](CN1C(=O)c1cc4ccc(Cl)cc4n1Cc1ccc(-c4ccccc4)cc1)[C@@H]23`, for which the MIC was 1.16 µg/mL (≈ 1.86 µM) with Escherichia coli; 0.373 µg/mL (≈ 0.598 µM) against Cutibacterium acnes; 0.55 µg/mL (≈ 0.881 µM) in the assay on Pseudomonas aeruginosa; 23.2 µg/mL (≈ 37.2 µM) in the assay with Candida albicans; 0.053 µg/mL (≈ 0.0849 µM) in the assay with Staphylococcus aureus. Further, the values for the -logMIC in the assay on Candida albicans and with Staphylococcus aureus were -1.37 and 1.276, respectively.
